Our source for the TGI values is PubChem BioAssay (NCI).

Structures are written as SMILES.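 Step 1: Grow cells in 96-well plates. Step 2: Expose to compound for 48 hours at 5 concentrations. Step 3: Interpolate endpoints linearly; if unreached, use highest concentration. TGI is the concentration that stops growth completely.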

In general, TGI refers to the concentration at which net growth stops.

For the first test, the system named is OVCAR-4 ovarian. Nature of the test: DTP human tumour cell line panel, 48 h.
With `COC(=O)N/N=C(\C)C(CN1CCCCC1)C(C1=C(O)c2ccccc2OC1)c1ccccc1` (configuration not stated), the concentration for total growth inhibition (TGI) is above 100 µM.
`COC(=O)/C(C#N)=C1\CCC(O)N1` (configuration not stated) returned a total growth inhibition concentration (TGI) above 100 µM.

Another test has as its system NCI-H522 lung. As to the kind of experiment: DTP human tumour cell line panel, 48 h.
With `C[n+]1cc(C(O)c2ccc3c(c2)OCO3)c2ccccc2c1` (configuration not stated), the TGI came out at 48.1 µM.
`COc1ccc(/C(Cl)=C(\C=O)c2ccc(F)cc2)cc1OC` registered a total growth inhibition concentration (TGI) of 46.5 µM.
In turn, `COC(=O)N/N=C(\C)C(CN1CCCCC1)C(C1=C(O)c2ccccc2OC1)c1ccccc1` (configuration not stated) came in with a TGI above 100 µM.
In the case of `COC(=O)/C(C#N)=C1\CCC(O)N1` (configuration not stated), the TGI is above 100 µM.

Another test concerns EKVX NSCLC. As to the kind of experiment: DTP human tumour cell line panel, 48 h.
For the molecule `C[n+]1cc(C(O)c2ccc3c(c2)OCO3)c2ccccc2c1` (configuration not stated), the total growth inhibition concentration (TGI) is above 100 µM.
On to `COc1ccc(/C(Cl)=C(\C=O)c2ccc(F)cc2)cc1OC`, for which the concentration for total growth inhibition (TGI) stood at 65.4 µM.
In the case of `COC(=O)N/N=C(\C)C(CN1CCCCC1)C(C1=C(O)c2ccccc2OC1)c1ccccc1` (configuration not stated), the TGI was above 100 µM.
In the case of `COC(=O)/C(C#N)=C1\CCC(O)N1` (configuration not stated), the TGI is above 100 µM.

The subject of a further test is U251 CNS. As to the kind of experiment: DTP human tumour cell line panel, 48 h.
`C[n+]1cc(C(O)c2ccc3c(c2)OCO3)c2ccccc2c1` (configuration not stated) yielded a concentration for total growth inhibition (TGI) above 100 µM.
The same measure, in the same setting: in the case of `COc1ccc(/C(Cl)=C(\C=O)c2ccc(F)cc2)cc1OC` it was 33.6 µM; in that of `COC(=O)N/N=C(\C)C(CN1CCCCC1)C(C1=C(O)c2ccccc2OC1)c1ccccc1` (configuration not stated), above 100 µM; in that of `COC(=O)/C(C#N)=C1\CCC(O)N1` (configuration not stated), above 100 µM.

The next test has as its system M14 melanoma. Nature of the test: DTP human tumour cell line panel, 48 h.
With `C[n+]1cc(C(O)c2ccc3c(c2)OCO3)c2ccccc2c1` (configuration not stated), the TGI came out at 91.7 µM.
`COc1ccc(/C(Cl)=C(\C=O)c2ccc(F)cc2)cc1OC` had a TGI of 47.9 µM.
For the molecule `COC(=O)N/N=C(\C)C(CN1CCCCC1)C(C1=C(O)c2ccccc2OC1)c1ccccc1` (configuration not stated), the TGI was above 100 µM.
Molecule `COC(=O)/C(C#N)=C1\CCC(O)N1` (configuration not stated) yielded a total growth inhibition concentration (TGI) above 100 µM.

The next test concerns HL-60(TB) leukemia. Nature of the test: DTP human tumour cell line panel, 48 h.
`COc1ccc(/C(Cl)=C(\C=O)c2ccc(F)cc2)cc1OC` gave a total growth inhibition concentration (TGI) of 37.5 µM.
The molecule `COC(=O)N/N=C(\C)C(CN1CCCCC1)C(C1=C(O)c2ccccc2OC1)c1ccccc1` (configuration not stated) yielded a TGI above 100 µM.
With `COC(=O)/C(C#N)=C1\CCC(O)N1` (configuration not stated), the TGI is above 100 µM.

In another test the test system is XF 498 CNS. As to the kind of experiment: DTP human tumour cell line panel, 48 h.
Turning to `COC(=O)N/N=C(\C)C(CN1CCCCC1)C(C1=C(O)c2ccccc2OC1)c1ccccc1` (configuration not stated), the TGI was above 100 µM.
On the same count and under the same terms, in the case of `COC(=O)/C(C#N)=C1\CCC(O)N1` (configuration not stated) it was above 100 µM.

The test system of a further test is HOP-18 NSCLC. Nature of the test: DTP human tumour cell line panel, 48 h.
As to `COc1ccc(/C(Cl)=C(\C=O)c2ccc(F)cc2)cc1OC`, the total growth inhibition concentration (TGI) is 44.2 µM.
For the molecule `COC(=O)N/N=C(\C)C(CN1CCCCC1)C(C1=C(O)c2ccccc2OC1)c1ccccc1` (configuration not stated), the TGI was above 100 µM.
The same measure, in the same setting: in the case of `COC(=O)/C(C#N)=C1\CCC(O)N1` (configuration not stated) it was above 100 µM.

The test system of a further test is KM12 colon. As to the kind of experiment: DTP human tumour cell line panel, 48 h.
As to `C[n+]1cc(C(O)c2ccc3c(c2)OCO3)c2ccccc2c1` (configuration not stated), the TGI was above 100 µM.
Take `COC(=O)N/N=C(\C)C(CN1CCCCC1)C(C1=C(O)c2ccccc2OC1)c1ccccc1` (configuration not stated): the TGI is above 100 µM.
`COC(=O)/C(C#N)=C1\CCC(O)N1` (configuration not stated) registered a concentration for total growth inhibition (TGI) above 100 µM.

For a further test, the system named is HCC-2998 colon. As to the kind of experiment: DTP human tumour cell line panel, 48 h.
In the case of `C[n+]1cc(C(O)c2ccc3c(c2)OCO3)c2ccccc2c1` (configuration not stated), the concentration for total growth inhibition (TGI) is above 100 µM.
The same measure, in the same setting: in the case of `COC(=O)/C(C#N)=C1\CCC(O)N1` (configuration not stated) it was above 100 µM.

The next test has as its system SK-OV-3 ovarian. As to the kind of experiment: DTP human tumour cell line panel, 48 h.
Molecule `C[n+]1cc(C(O)c2ccc3c(c2)OCO3)c2ccccc2c1` (configuration not stated) had a total growth inhibition concentration (TGI) above 100 µM.
The molecule `COc1ccc(/C(Cl)=C(\C=O)c2ccc(F)cc2)cc1OC` registered a TGI of 77.2 µM.
Regarding `COC(=O)N/N=C(\C)C(CN1CCCCC1)C(C1=C(O)c2ccccc2OC1)c1ccccc1` (configuration not stated), the TGI was above 100 µM.
`COC(=O)/C(C#N)=C1\CCC(O)N1` (configuration not stated) came in with a total growth inhibition concentration (TGI) above 100 µM.

A further test concerns KM20L2 colon. Nature of the test: DTP human tumour cell line panel, 48 h.
As to `C[n+]1cc(C(O)c2ccc3c(c2)OCO3)c2ccccc2c1` (configuration not stated), the TGI was above 100 µM.
For `COc1ccc(/C(Cl)=C(\C=O)c2ccc(F)cc2)cc1OC`, the concentration for total growth inhibition (TGI) was found to be 34.1 µM.
Molecule `COC(=O)N/N=C(\C)C(CN1CCCCC1)C(C1=C(O)c2ccccc2OC1)c1ccccc1` (configuration not stated) had a TGI above 100 µM.
In the case of `COC(=O)/C(C#N)=C1\CCC(O)N1` (configuration not stated), the TGI is above 100 µM.

In another test the test system is MOLT-4 leukemia. As to the kind of experiment: DTP human tumour cell line panel, 48 h.
`C[n+]1cc(C(O)c2ccc3c(c2)OCO3)c2ccccc2c1` (configuration not stated) had a concentration for total growth inhibition (TGI) of 55.5 µM.
`COc1ccc(/C(Cl)=C(\C=O)c2ccc(F)cc2)cc1OC` showed a TGI of 71.7 µM.
In turn, `COC(=O)N/N=C(\C)C(CN1CCCCC1)C(C1=C(O)c2ccccc2OC1)c1ccccc1` (configuration not stated) had a TGI above 100 µM.
Take `COC(=O)/C(C#N)=C1\CCC(O)N1` (configuration not stated): the concentration for total growth inhibition (TGI) was above 100 µM.

The test system of a further test is DMS 273 small cell lung. As to the kind of experiment: DTP human tumour cell line panel, 48 h.
With `C[n+]1cc(C(O)c2ccc3c(c2)OCO3)c2ccccc2c1` (configuration not stated), the TGI was above 100 µM.
`COc1ccc(/C(Cl)=C(\C=O)c2ccc(F)cc2)cc1OC` registered a TGI of 97.3 µM.
Still for that read-out and setting: the same measure for `COC(=O)N/N=C(\C)C(CN1CCCCC1)C(C1=C(O)c2ccccc2OC1)c1ccccc1` (configuration not stated): above 100 µM; for `COC(=O)/C(C#N)=C1\CCC(O)N1` (configuration not stated): above 100 µM.

The subject of the next test is NCI-H460 lung. As to the kind of experiment: DTP human tumour cell line panel, 48 h.
`C[n+]1cc(C(O)c2ccc3c(c2)OCO3)c2ccccc2c1` (configuration not stated): the TGI is above 100 µM.
In the case of `COc1ccc(/C(Cl)=C(\C=O)c2ccc(F)cc2)cc1OC`, the TGI came out at 43 µM.
Turning to `COC(=O)N/N=C(\C)C(CN1CCCCC1)C(C1=C(O)c2ccccc2OC1)c1ccccc1` (configuration not stated), the total growth inhibition concentration (TGI) is above 100 µM.
As to `COC(=O)/C(C#N)=C1\CCC(O)N1` (configuration not stated), the TGI was above 100 µM.

In the next test the test system is HOP-62 NSCLC. As to the kind of experiment: DTP human tumour cell line panel, 48 h.
Turning to `C[n+]1cc(C(O)c2ccc3c(c2)OCO3)c2ccccc2c1` (configuration not stated), the TGI was above 100 µM.
